Results taken from patent US11912793B2, “Polypeptide and application thereof in bone repair” (SICHUAN UNIVERSITY, priority 2022, dated 2024).

Experiments:
calvarial defects = test: Calvarial defect implantation of polypeptide-modified GelMA, H&E and Goldner's trichrome staining; format: in vivo, SD male rats; settings: GelMA scaffold with peptide 0.1 mg/mL, 5 mm calvarial defect, 4 weeks post-implantation
Description: • 2.1 GelMA Preparation: gelatin was fully dissolved in phosphate-buffered saline (PBS) at 60° C. with a concentration of 10% (w/v). […] Double PBS was added to the mixture to stop the reaction. The solution was dialyzed against distilled water using 12-14 kDa dialysis tubing for 1 week. The obtained GelMA solution was frozen at −20° C. overnight and lyophilized for 72 h to get sponge GelMA. • 2.2 Polypeptide modification: 2 g lyophilized GelMA was dissolved in 10 mL PBS containing 0.1% (w/v) photoinitiator LAP at 60° C. Then, either a control peptide or GS18 was added to achieve a final concentration of 0.1 mg/mL. The above mixture was injected into the mold (20 μL/hole) and exposed to ultraviolet irradiation (6.9 W/cm^2, 360-489 nm) for 2 min at room temperature. Once solidified, the materials were carefully detached from the mold and placed on ice for use. • 2.3 Result verification: photographs were captured to depict the morphological characteristics of the polypeptide-modified GelMA after it was separated from the mold.
• 3.1 Sample preparation: the GelMA scaffold was utilized to encapsulate either GS18 or control peptide at a concentration of 0.1 mg/mL, resulting in a total volume of 0.02 cm^3. • 3.2 Animal model: 12-week-old SD male rats (about 320±20 g each) were used. Each group contained 3 rats. Rats were anesthetized with 2% pentobarbital via abdominal injection. The rats were positioned in the prone position. An electric razor was utilized to remove fur from the cranial region. Following this, the surgical sites were thoroughly cleansed with iodophor for disinfection. To maintain a sterile condition, disposable towels were carefully placed over the surgical regions. Starting from the nasal bone, a longitudinal skin incision of 1.5-2.0 cm was made along the midline of the top of the head. The subcutaneous tissue was gently separated with the handle of a surgical knife. The periosteum was meticulously incised along the sagittal suture of the cranium and subsequently separated to fully expose the parietal bone, occipital bone, and part of the frontal bone. Bilateral full-thickness circular calvarial defects (diameter=5 mm) were generated using a trephine. Sterilized materials were implanted into the defect sites. The experimental group was implanted with GS18-modified GelMA, While the control group was implanted with control peptide-modified GelMA. Finally, the skin was reset, sutured, and disinfected. • 3.3 Tissue slices: after 4 weeks, the rats were sacrificed. […] The paraffin tissue slices were heated at 65° C., dewaxed, hydrated with xylene and gradient ethanol, and stained with H&E and Goldner's trichrome staining for histological evaluation.

[1] = test system: osteogenesis-oriented BMSCs (pre-osteoblasts); test: In vitro osteogenic differentiation, Von kossa staining; format: cell-based, C57BL/6 male mice; settings: 5 days OM pretreatment, then 14 days peptide-containing OM, compared with the control peptide
Description: • 1.1 Cell culture: primary bone mesenchymal stem cells (BMSCs) extracted from the long bones of 3-week-old C57BL/6 male mice were selected, cultured at 37° C. in a humidified atmosphere with 5% CO2, and inoculated into a 24-well plate with 30000 cells/well. α-MEM supplemented with 5% FBS, 1% penicillin-streptomycin, […], 10 mM β-glycerophosphate, and 50 μg/mL L-ascorbic acid was used as the osteogenic medium (OM) for osteogenic induction. • 1.2 Cell induction: BMSCs were pretreated with OM for 5 days to achieve a determined osteogenic precursor cell state, followed by ongoing induction with peptide-containing OM for another 14 days. The experimental group used OM added with GS18, and the control group used OM added with the control peptide. GS18 was synthesized using a solid-phase polypeptide synthesis and was purified by HPLC (purity=96.59%). The amino acid sequence of the control peptide was shown as SEQ ID NO: 2, i.e. CKPLRLSKEEHPLK. The control peptide also adopted a solid-phase polypeptide synthesis method and used HPLC to purify products (purity=96.15%). […] The integrated density of calcium nodes (IntDen) and the percent of the calcified area to the total area (Area %) from five random areas were measured by Fiji. **p<0.01.

Wnt/β-catenin pathway = test: Immunofluorescence staining of active β-catenin and osteocalcin in calvarial defects; format: in vivo, SD male rats; settings: 4 weeks after implantation
Description: • 3.1 Sample preparation: the GelMA scaffold was utilized to encapsulate either GS18 or control peptide at a concentration of 0.1 mg/mL, resulting in a total volume of 0.02 cm^3. • 3.2 Animal model: 12-week-old SD male rats (about 320±20 g each) were used. Each group contained 3 rats. Rats were anesthetized with 2% pentobarbital via abdominal injection. The rats were positioned in the prone position. An electric razor was utilized to remove fur from the cranial region. Following this, the surgical sites were thoroughly cleansed with iodophor for disinfection. To maintain a sterile condition, disposable towels were carefully placed over the surgical regions. Starting from the nasal bone, a longitudinal skin incision of 1.5-2.0 cm was made along the midline of the top of the head. The subcutaneous tissue was gently separated with the handle of a surgical knife. […]
• 4.1 Antigen repair: the paraffin slices prepared in Embodiment 3.3 were heated at 65° C., dewaxed, hydrated with xylene and gradient ethanol, and immersed in the antigen repair buffer at 100° C. for 40 min. […] Subsequently, the sections were washed with PBS three times for 15 min each time and sealed by the anti-fluorescence quencher. • 4.3 Result verification: images of immunofluorescence staining were acquired using a confocal laser scanning microscope (CLSM, FV3000, Olympus, Japan).

Sequence | Goldner's trichrome staining: cellular growth / cell infiltration in the defect (FIG. 4) (calvarial defects) | H&E staining: cellular growth / cell recruitment in the defect (FIG. 3) (calvarial defects) | formation of calcium deposits of pre-osteoblasts (FIG. 1B) [1] | maturation of calcium deposits of pre-osteoblasts (FIG. 1C) [1] | H&E staining: fiber mineralization in the defect (FIG. 3) (calvarial defects) | expression of Ocn in the defect area (FIG. 5) (Wnt/β-catenin pathway) | expression of active β-Catenin in newly formed tissues of the calvarial defects (FIG. 5) (Wnt/β-catenin pathway; compared to non-peptide-modified GelMA)
CKPLRLSKEEHPLK (The sequence is synthetized) [control peptide, control peptide made by solid-phase polypeptide synthesis, reference compound] | conspicuous paucity of cellular growth within the central region of the defect | noticeable lack of cellular growth in the central region of the defect |  |  |  |  | 
GPGGDKCRCVFHWVCCYVS (GPGGDKCRCVFHWCCYVS; The sequence is synthetized) [GS18] |  | capacity to attract and recruit cells into the scaffolds | significantly increased | significantly increased | high degree of fiber mineralization | robust and widespread | significantly enhanced
